# Reference: patent US9302999B2, “Substituted triazoles as herbicides” (E. I. DU PONT DE NEMOURS AND COMPANY, priority 2012, dated 2016)
# Experiments:
# Type in all cases: in vivo
# corn (Zea mays) = test: Test A pre-/postemergence: corn; conditions: for Corn plant response rating: Postemergence; for Plant response rating, Corn: Preemergence
# How it was run: (§1)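 Soil medium was loam blended with sand; treatments pre- and postemergence were applied concurrently, postemergence at one- to two-leaf stage. Approximately ten days in greenhouse preceded visual comparison with untreated controls, scored 0 (no effect) to 100 (complete control).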
# [1] = test system: barnyardgrass (Echinochloa crus-galli); test: Test A pre-/postemergence: barnyardgrass; conditions: for Barnyardgrass plant response rating: Postemergence; for Plant response rating, Barnyardgrass: Preemergence
# How it was run: as §1
# [2] = test system: crabgrass, large (large crabgrass, Digitaria sanguinalis); test: Test A pre-/postemergence: crabgrass, large; conditions: for Crabgrass, Large plant response rating: Postemergence; for Plant response rating, Crabgrass, Large: Preemergence
# How it was run: as §1
# [3] = test system: foxtail, giant (giant foxtail, Setaria faberii); test: Test A pre-/postemergence: foxtail, giant; conditions: for Foxtail, Giant plant response rating: Postemergence; for Plant response rating, Foxtail, Giant: Preemergence
# How it was run: as §1
# [4] = test system: morningglory (Ipomoea spp.); test: Test A pre-/postemergence: morningglory; conditions: for Morningglory plant response rating: Postemergence; for Plant response rating, Morningglory: Preemergence
# How it was run: as §1
# [5] = test system: ducksalad (Heteranthera limosa); test: Test C flooded paddy test: ducksalad; conditions: scale 0 to 100 (0 no effect, 100 complete control)
# How it was run: (§2)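 Plants were grown to the 2-leaf stage, pots flooded to 3 cm above soil, and test compounds applied directly to the paddy water, with that depth held throughout. After 13 to 15 days in a greenhouse, injury was visually rated against controls on a 0 (no effect) to 100 (complete control) scale.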
# [6] = test system: barnyardgrass (Echinochloa crus-galli); test: Test C flooded paddy test: barnyardgrass; conditions: scale 0 to 100 (0 no effect, 100 complete control)
# How it was run: as §2
# [7] = test system: wheat (Triticum aestivum); test: Test A pre-/postemergence: wheat; conditions: for Wheat plant response rating: Postemergence; for Plant response rating, Wheat: Preemergence
# How it was run: as §1
# [8] = test system: pigweed (Amaranthus retroflexus); test: Test A pre-/postemergence: pigweed; conditions: for Pigweed plant response rating: Postemergence; for Plant response rating, Pigweed: Preemergence
# How it was run: as §1
# [9] = test system: velvetleaf (Abutilon theophrasti); test: Test A pre-/postemergence: velvetleaf; conditions: for Velvetleaf plant response rating: Postemergence; for Plant response rating, Velvetleaf: Preemergence
# How it was run: as §1
# rice (Oryza sativa) = test: Test C flooded paddy test: rice; conditions: scale 0 to 100 (0 no effect, 100 complete control)
# How it was run: as §2
# [10] = test system: sedge, umbrella (small-flower umbrella sedge, Cyperus difformis); test: Test C flooded paddy test: sedge, umbrella; conditions: scale 0 to 100 (0 no effect, 100 complete control)
# How it was run: as §2
# [11] = 125 g ai/ha, 0 to 100 scale, 0 is no effect, 100 is complete control
# [12] = 500 g ai/ha, visual rating on 0 to 100 scale (0 no effect, 100 complete control), approximately ten days
# [13] = 125 g ai/ha, 0 to 100 scale where 0 is no effect and 100 is complete control
# [14] = 500 g ai/ha, 0 to 100 scale, 0 is no effect, 100 is complete control
# [15] = Flood (flooded paddy test), 125 g ai/ha, visual rating after 13 to 15 days
# [16] = Flood (flooded paddy test), 250 g ai/ha, visual rating after 13 to 15 days
# [17] = 125 g ai/ha, 0 to 100 scale (0 no effect, 100 complete control)
# [18] = Flood (flooded paddy test), 62 g ai/ha, visual rating after 13 to 15 days
smiles,measurement,setting,value
Cc1nn(-c2ccc(C(F)(F)F)cc2)nc1Oc1cccc(C(F)(F)F)c1 [Compound 111],Corn plant response rating,corn (Zea mays); [11],20
same,Corn plant response rating,corn (Zea mays); [12],30
same,"Plant response rating, Corn",corn (Zea mays); [13],0
same,"Plant response rating, Corn",corn (Zea mays); [14],20
same,Barnyardgrass plant response rating,[1]; [11],20
same,Barnyardgrass plant response rating,[1]; [12],30
same,"Plant response rating, Barnyardgrass",[1]; [13],20
same,"Plant response rating, Barnyardgrass",[1]; [14],80
same,"Crabgrass, Large plant response rating",[2]; [11],90
same,"Crabgrass, Large plant response rating",[2]; [12],90
same,"Plant response rating, Crabgrass, Large",[2]; [13],80
same,"Plant response rating, Crabgrass, Large",[2]; [14],100
same,"Foxtail, Giant plant response rating",[3]; [11],80
same,"Foxtail, Giant plant response rating",[3]; [12],90
same,"Plant response rating, Foxtail, Giant",[3]; [13],70
same,"Plant response rating, Foxtail, Giant",[3]; [14],100
same,Morningglory plant response rating,[4]; [11],70
same,Morningglory plant response rating,[4]; [12],100
same,"Plant response rating, Morningglory",[4]; [13],0
same,"Plant response rating, Morningglory",[4]; [14],30
same,"Plant response rating, Ducksalad",[5]; [15],70
same,"Plant response rating, Ducksalad",[5]; [16],80
same,"Plant response rating, Ducksalad","[5]; Flood, 31 g ai/ha",0
same,"Plant response rating, Ducksalad","[5]; Flood, 62 g ai/ha",30
same,"Plant response rating, Barnyardgrass",[6]; [15],20
same,"Plant response rating, Barnyardgrass",[6]; [16],35
same,"Plant response rating, Barnyardgrass","[6]; Flood, 31 g ai/ha",0
same,"Plant response rating, Barnyardgrass","[6]; Flood, 62 g ai/ha",0
same,Wheat plant response rating,[7]; [11],10
same,Wheat plant response rating,[7]; [12],40
same,"Plant response rating, Wheat",[7]; [13],0
same,"Plant response rating, Wheat",[7]; [14],0
same,Pigweed plant response rating,[8]; [11],90
same,Pigweed plant response rating,[8]; [12],90
same,"Plant response rating, Pigweed",[8]; [13],70
same,"Plant response rating, Pigweed",[8]; [14],90
same,Velvetleaf plant response rating,[9]; [11],20
same,Velvetleaf plant response rating,[9]; [12],70
same,"Plant response rating, Velvetleaf",[9]; [13],0
same,"Plant response rating, Velvetleaf",[9]; [14],50
same,"Plant response rating, Rice",rice (Oryza sativa); [15],25
same,"Plant response rating, Rice",rice (Oryza sativa); [16],30
same,"Plant response rating, Rice","rice (Oryza sativa); Flood, 31 g ai/ha",0
same,"Plant response rating, Rice","rice (Oryza sativa); Flood, 62 g ai/ha",0
same,"Plant response rating, Sedge, Umbrella",[10]; [15],80
same,"Plant response rating, Sedge, Umbrella",[10]; [16],85
same,"Plant response rating, Sedge, Umbrella","[10]; Flood, 31 g ai/ha",45
same,"Plant response rating, Sedge, Umbrella","[10]; Flood, 62 g ai/ha",65
Cc1nn(-c2ccc(F)cc2)nc1Oc1cccc(C(F)(F)F)c1 [Compound 98],Corn plant response rating,corn (Zea mays); [11],20
same,Corn plant response rating,corn (Zea mays); [12],30
same,"Plant response rating, Corn",corn (Zea mays); [17],0
same,"Plant response rating, Corn",corn (Zea mays); [14],10
same,Barnyardgrass plant response rating,[1]; [11],30
same,Barnyardgrass plant response rating,[1]; [12],80
same,"Plant response rating, Barnyardgrass",[1]; [17],10
same,"Plant response rating, Barnyardgrass",[1]; [14],60
same,"Crabgrass, Large plant response rating",[2]; [11],90
same,"Crabgrass, Large plant response rating",[2]; [12],90
same,"Plant response rating, Crabgrass, Large",[2]; [17],80
same,"Plant response rating, Crabgrass, Large",[2]; [14],100
same,"Foxtail, Giant plant response rating",[3]; [11],80
same,"Foxtail, Giant plant response rating",[3]; [12],90
same,"Plant response rating, Foxtail, Giant",[3]; [13],70
same,"Plant response rating, Foxtail, Giant",[3]; [14],100
same,Morningglory plant response rating,[4]; [11],80
same,Morningglory plant response rating,[4]; [12],100
same,"Plant response rating, Morningglory",[4]; [13],0
same,"Plant response rating, Morningglory",[4]; [14],10
same,"Plant response rating, Ducksalad",[5]; [15],30
same,"Plant response rating, Ducksalad",[5]; [16],70
same,"Plant response rating, Ducksalad","[5]; Flood, 31 g ai/ha",0
same,"Plant response rating, Ducksalad","[5]; Flood, 62 g ai/ha",0
same,"Plant response rating, Barnyardgrass",[6]; [15],30
same,"Plant response rating, Barnyardgrass",[6]; [16],70
same,"Plant response rating, Barnyardgrass","[6]; Flood, 31 g ai/ha",0
same,"Plant response rating, Barnyardgrass","[6]; Flood, 62 g ai/ha",0
same,Wheat plant response rating,[7]; [11],10
same,Wheat plant response rating,[7]; [12],30
same,"Plant response rating, Wheat",[7]; [13],0
same,"Plant response rating, Wheat",[7]; [14],20
same,Pigweed plant response rating,[8]; [11],100
same,Pigweed plant response rating,[8]; [12],100
same,"Plant response rating, Pigweed",[8]; [13],60
same,"Plant response rating, Pigweed",[8]; [14],100
same,Velvetleaf plant response rating,[9]; [11],60
same,Velvetleaf plant response rating,[9]; [12],80
same,"Plant response rating, Velvetleaf",[9]; [13],0
same,"Plant response rating, Velvetleaf",[9]; [14],50
same,"Plant response rating, Rice",rice (Oryza sativa); [15],30
same,"Plant response rating, Rice",rice (Oryza sativa); [16],40
same,"Plant response rating, Rice","rice (Oryza sativa); Flood, 31 g ai/ha",0
same,"Plant response rating, Rice","rice (Oryza sativa); Flood, 62 g ai/ha",0
same,"Plant response rating, Sedge, Umbrella",[10]; [15],40
same,"Plant response rating, Sedge, Umbrella",[10]; [16],80
same,"Plant response rating, Sedge, Umbrella","[10]; Flood, 31 g ai/ha",0
same,"Plant response rating, Sedge, Umbrella","[10]; Flood, 62 g ai/ha",0
Cc1nn(-c2ccc(C(F)F)cn2)nc1C(=O)c1cccc(C(F)(F)F)c1 [Compound 68],Corn plant response rating,corn (Zea mays); [11],0
same,Corn plant response rating,corn (Zea mays); [12],10
same,"Plant response rating, Corn",corn (Zea mays); [17],0
same,"Plant response rating, Corn",corn (Zea mays); [14],0
same,Barnyardgrass plant response rating,[1]; [11],0
same,Barnyardgrass plant response rating,[1]; [12],10
same,"Plant response rating, Barnyardgrass",[1]; [17],0
same,"Plant response rating, Barnyardgrass",[1]; [14],0
same,"Crabgrass, Large plant response rating",[2]; [11],10
same,"Crabgrass, Large plant response rating",[2]; [12],10
same,"Plant response rating, Crabgrass, Large",[2]; [17],0
same,"Plant response rating, Crabgrass, Large",[2]; [14],0
same,"Foxtail, Giant plant response rating",[3]; [11],10
same,"Foxtail, Giant plant response rating",[3]; [12],10
same,"Plant response rating, Foxtail, Giant",[3]; [17],0
same,"Plant response rating, Foxtail, Giant",[3]; [14],0
same,Morningglory plant response rating,[4]; [11],0
same,Morningglory plant response rating,[4]; [12],10
same,"Plant response rating, Morningglory",[4]; [17],0
same,"Plant response rating, Morningglory",[4]; [14],0
same,"Plant response rating, Ducksalad",[5]; [18],0
same,"Plant response rating, Ducksalad",[5]; [15],0
same,"Plant response rating, Ducksalad",[5]; [16],0
same,"Plant response rating, Ducksalad","[5]; Flood, 31 g ai/ha",0
same,"Plant response rating, Barnyardgrass",[6]; [18],0
same,"Plant response rating, Barnyardgrass",[6]; [15],0
same,"Plant response rating, Barnyardgrass",[6]; [16],0
same,"Plant response rating, Barnyardgrass","[6]; Flood, 31 g ai/ha",0
same,Wheat plant response rating,[7]; [11],0
same,Wheat plant response rating,[7]; [12],10
same,"Plant response rating, Wheat",[7]; [17],0
same,"Plant response rating, Wheat",[7]; [14],0
same,Pigweed plant response rating,[8]; [11],10
same,Pigweed plant response rating,[8]; [12],50
same,"Plant response rating, Pigweed",[8]; [17],0
same,"Plant response rating, Pigweed",[8]; [14],0
same,Velvetleaf plant response rating,[9]; [12],0
same,"Plant response rating, Velvetleaf",[9]; [17],0
same,"Plant response rating, Velvetleaf",[9]; [14],0
same,"Plant response rating, Rice",rice (Oryza sativa); [18],0
same,"Plant response rating, Rice",rice (Oryza sativa); [15],0
same,"Plant response rating, Rice",rice (Oryza sativa); [16],0
same,"Plant response rating, Rice","rice (Oryza sativa); Flood, 31 g ai/ha",0
same,"Plant response rating, Sedge, Umbrella",[10]; [18],0
same,"Plant response rating, Sedge, Umbrella",[10]; [15],0
same,"Plant response rating, Sedge, Umbrella",[10]; [16],0
same,"Plant response rating, Sedge, Umbrella","[10]; Flood, 31 g ai/ha",0
